Patent US6265588A, “Isoxazole and crotonamide derivatives and their use as pharmaceuticals and diagnostics” (Aventis Pharma Deutschland GmbH, priority 1997, dated 2001)
Where a name gives a salt, the structure may show the parent alone.

Legend:
RAW 264.7 cells = assay: Comparative affinity chromatography of LPS-stimulated, leflunomide-treated RAW 264.7 cytosol extracts; format: cell-based; conditions: RAW 264.7, 10 ng LPS/ml plus 60 μM A 77 1726B, 24 hours; FRACTOGEL column derivatized according to Example 10
Text: The stimulation of the macrophage cell line RAW 264.7 with lipopolysaccharide was used as an in vitro model for inflammatory processes. Lipopolysaccharide ("LPS") is an essential structural constituent of the outer membrane of Gram-negative bacteria and is recognized as such by immune cells of almost all organisms. In particular, macrophages are activated by LPS stimulation to synthesize a number of cytokines such as TNF-α, IL-1 and IL-6. Potential changes in the protein pattern which accompany this stimulation should be prevented by the simultaneous administration of the immunoregulatory preparation leflunomide.
RAW 264.7 cells were incubated with 10 ng of LPS/ml of culture medium for 24 hours. In the case of LPS-stimulated, leflunomide-treated cells, incubation was simultaneously carried out with 60 μM A 77 1726B for 24 hours. The cells were processed and the cytosolic extracts investigated by affinity chromatography with the aid of the FRACTOGEL® column derivatized according to Example 10. The preparation fractions of these three batches were then applied to an analytical gradient gel and compared with one another.

A20.2.J = assay: Proliferation test, cell line A20.2.J; format: cell-based; conditions: 72 h, tritium-thymidine incorporation, read-out: concentrations at which a 50% inhibition occurs, A20.2.J
Method: (§1) Clicks/RPMI 1640 medium (50:50) with L-glutamine and without NaHCO3 in powder form for 10 l (Seromed, Biochrom, Berlin, FRG), is dissolved in 9 l of double-distilled water and sterile-filtered into bottles each containing 900 ml.
(§2) For keeping tumor cells and hybridoma cells, use medium containing 5% FCS is prepared.
(§3) For keeping cell lines, 900 ml of use medium containing 10% FCS, 10 ml of NEA (non-essential amino acids) solution (Gibco), 10 ml of sodium pyruvate solution (100 mM, Gibco) and 5 ml of 10^-2 M mercaptoethanol are mixed.
(§4) The tumor cells or cell lines used in the test are taken from the stock solution in the logarithmic growth phase, washed twice with wash medium and suspended in the appropriate medium.
(§5) The proliferation test is carried out in round-bottom microtiter plates. Compounds of the formula I and interleukins are dissolved in 50 μl each/hollow of the appropriate medium and the cell count (5×10^5) is adjusted with 100 μl/hollow so that a final volume of 200 μl/hollow results. In all tests, the values are determined four times. Cells without preparations and without growth factor are defined as a negative control and cells without preparation with growth factor afford the values for the positive control. The value of the negative control is subtracted from all values determined and the difference of positive control minus negative control is set at 100%.
(§6) The microtiter plates are incubated at 37° C./5% CO2 for 72 h and the proliferation rate is determined correspondingly as in mitogen-induced lymphocyte proliferation. The cell lines were obtained from the strain collection, American Type Culture Collection ("ATCC").

EL 4 = assay: Proliferation test, cell line EL 4; format: cell-based; conditions: Mus musculus, EL4; cell line EL 4, 72 h, tritium-thymidine incorporation; read-out: concentrations at which a 50% inhibition occurs, EL 4
Method: as §1, §2, §3, §4, §5, §6

K562 = assay: Proliferation test, cell line K562; format: cell-based; conditions: Homo sapiens; cell line K562, 72 h, tritium-thymidine incorporation; read-out: concentrations at which a 50% inhibition occurs, K562
Method: as §1, §2, §3, §4
as §5, with “Cells without preparations and without growth factor are defined as a negative control and cells without preparation with growth factor afford the values for the positive control.” left out
The microtiter plates are incubated at 37° C./5% CO2 for 72 h and the proliferation rate is determined correspondingly as in mitogen-induced lymphocyte proliferation. […]

Pyruvate kinase DH = assay: BIAcore binding of dehydrogenases to chip coated with compound of Example 2; conditions: compound immobilised on CM5 chip
Method: (§7) The starting material is a CM5 chip from Pharmacia Biosensor having a carboxymethyldextran surface (BIApplication Handbook, Ed. 1994, Merck AB, Uppsala, Sweden). The coupling steps are all carried out at a flow rate of 5 μl/min. All steps are carried out at 25° C. using Hepes buffered saline ("HBS") pH 7.4 as the running buffer.
(§8) 1st step: 35 μl of a 1:1 mixture of 0.05 M NHS (N-hydroxysuccinimide) and 0.2 M EDC (N-ethyl-N'-(dimethylaminopropyl)carbodiimide) in order to activate the chip surface.
(§9) 2nd step: 35 μl of a 40 mM cystamine dihydrochloride solution in 0.1 M sodium borate buffer pH 8.5.
(§10) 3rd step: 35 μl of ethanolamine hydrochloride pH 8.5 to saturate unoccupied matrix structures.
(§11) 4th step: 35 μl of 0.1 M dithiothreitol in 0.1 M sodium borate buffer pH 8.5.
(§12) 5th step: 35 μl of a solution containing compound according to Example 2 (10 mg/ml) in 0.1 M sodium borate buffer pH 7.5.
(§13) The analysis was carried out essentially as described in Current Biology, Vol. 3, No. 12, pages 913-915 (1993).
(§14) System: BIAcore® 2000 with corresponding software, Pharmacia Biosensor AB, Uppsala, Sweden
(§15) Chip: CM5 sensor chip, Pharmacia Biosensor AB
(§16) Coating: according to Example 8
(§17) Running buffer: HBS buffer, BIA certified, Pharmacia Biosensor AB
(§18) Injection: 5 min association phase per 50 μl of the sample to be analyzed.
(§19) Rinsing time: 180 sec 3 min dissociation phase
(§20) Regeneration: 2×15 sec using 0.05% sodium dodecylsulfate
(§21) The term "Resonance Units" is a quantitative unit which is proportional to the amount of protein bound.
(§22) DH represents the enzyme designation dehydrogenase

Dihydroorotate DH = Dihydroorotate DH (Homo sapiens, UniProt Q02127); assay: as above; conditions: compound immobilised on CM5 chip
Chain of Dihydroorotate DH (Q02127 whole entry): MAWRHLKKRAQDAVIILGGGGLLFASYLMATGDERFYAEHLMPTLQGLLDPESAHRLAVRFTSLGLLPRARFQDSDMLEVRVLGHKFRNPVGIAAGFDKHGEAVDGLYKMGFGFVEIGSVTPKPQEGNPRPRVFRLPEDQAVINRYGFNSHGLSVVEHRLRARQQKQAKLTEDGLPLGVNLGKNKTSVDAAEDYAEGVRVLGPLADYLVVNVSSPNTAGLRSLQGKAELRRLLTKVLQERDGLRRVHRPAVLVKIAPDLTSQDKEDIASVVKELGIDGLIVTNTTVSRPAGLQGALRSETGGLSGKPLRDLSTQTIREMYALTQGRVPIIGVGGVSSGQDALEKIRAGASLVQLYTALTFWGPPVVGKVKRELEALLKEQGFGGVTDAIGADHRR
Method: as §7, §8, §9, §10, §11, §12, §13, §14, §15, §16, §17, §18, §19, §20, §21, §22

[1] = molecular target: Glyceraldehyde phosphate DH (Homo sapiens, UniProt P04406); assay: as above; conditions: compound immobilised on CM5 chip
Chain of Glyceraldehyde phosphate DH (P04406 whole entry): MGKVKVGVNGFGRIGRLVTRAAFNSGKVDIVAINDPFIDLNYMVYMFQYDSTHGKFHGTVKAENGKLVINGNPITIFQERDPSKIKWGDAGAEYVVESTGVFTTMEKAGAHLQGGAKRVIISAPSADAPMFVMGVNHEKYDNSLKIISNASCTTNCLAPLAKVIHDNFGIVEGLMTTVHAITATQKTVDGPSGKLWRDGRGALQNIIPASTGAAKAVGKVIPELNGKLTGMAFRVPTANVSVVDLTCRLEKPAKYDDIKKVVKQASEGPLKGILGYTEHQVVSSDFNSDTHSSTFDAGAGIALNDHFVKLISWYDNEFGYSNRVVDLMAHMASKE
Method: as §7, §8, §9, §10, §11, §12, §13, §14, §15, §16, §17, §18, §19, §20, §21, §22

Donkey serum albumin = Donkey serum albumin (Equus asinus, UniProt Q5XLE4); assay: BIAcore binding of serum albumin to chip coated with compound of Example 2; conditions: compound immobilised on CM5 chip according to Example 8
Chain of Donkey serum albumin (Q5XLE4 25-607): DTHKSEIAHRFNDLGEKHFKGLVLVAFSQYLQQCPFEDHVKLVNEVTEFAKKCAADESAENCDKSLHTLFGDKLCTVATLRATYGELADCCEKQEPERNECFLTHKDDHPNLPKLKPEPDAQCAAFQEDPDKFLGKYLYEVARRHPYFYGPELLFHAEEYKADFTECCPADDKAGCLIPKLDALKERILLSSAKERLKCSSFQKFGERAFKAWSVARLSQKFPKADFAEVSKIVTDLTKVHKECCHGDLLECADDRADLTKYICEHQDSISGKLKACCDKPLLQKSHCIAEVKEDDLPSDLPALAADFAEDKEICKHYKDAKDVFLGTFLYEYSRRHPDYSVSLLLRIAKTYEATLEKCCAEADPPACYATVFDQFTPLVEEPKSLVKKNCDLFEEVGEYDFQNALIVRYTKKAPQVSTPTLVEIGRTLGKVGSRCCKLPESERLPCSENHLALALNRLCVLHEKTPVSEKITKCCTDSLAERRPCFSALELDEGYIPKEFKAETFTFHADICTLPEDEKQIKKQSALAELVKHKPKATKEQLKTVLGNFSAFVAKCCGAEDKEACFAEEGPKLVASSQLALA
Method: as §7, §8, §9, §10, §11, §12, §13, §14, §15, §16, §17, §18, §19, §20, §21

Mouse serum albumin = Mouse serum albumin (Mus musculus, UniProt P07724); assay: as above; conditions: compound immobilised on CM5 chip according to Example 8
Chain of Mouse serum albumin (P07724 25-608): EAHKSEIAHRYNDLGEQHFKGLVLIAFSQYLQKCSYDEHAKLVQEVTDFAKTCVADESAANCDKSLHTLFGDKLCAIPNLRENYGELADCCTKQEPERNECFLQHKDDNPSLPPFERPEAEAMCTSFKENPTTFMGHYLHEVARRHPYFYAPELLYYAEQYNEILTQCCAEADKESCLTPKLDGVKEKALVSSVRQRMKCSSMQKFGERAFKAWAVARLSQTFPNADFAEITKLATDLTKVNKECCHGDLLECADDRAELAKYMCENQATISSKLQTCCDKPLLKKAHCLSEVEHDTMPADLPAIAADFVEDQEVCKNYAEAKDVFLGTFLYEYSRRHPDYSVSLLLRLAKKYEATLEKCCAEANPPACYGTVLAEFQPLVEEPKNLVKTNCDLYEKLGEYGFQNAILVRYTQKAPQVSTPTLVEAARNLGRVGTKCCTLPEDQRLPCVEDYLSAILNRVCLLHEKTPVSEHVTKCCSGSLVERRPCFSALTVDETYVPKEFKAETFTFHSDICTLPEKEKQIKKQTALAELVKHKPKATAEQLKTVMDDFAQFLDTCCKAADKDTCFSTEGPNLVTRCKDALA
Method: as §7, §8, §9, §10, §11, §12, §13, §14, §15, §16, §17, §18, §19, §20, §21

Rat serum albumin = Rat serum albumin (Rattus norvegicus, UniProt P02770); assay: as above; conditions: compound immobilised on CM5 chip according to Example 8
Chain of Rat serum albumin (P02770 25-608): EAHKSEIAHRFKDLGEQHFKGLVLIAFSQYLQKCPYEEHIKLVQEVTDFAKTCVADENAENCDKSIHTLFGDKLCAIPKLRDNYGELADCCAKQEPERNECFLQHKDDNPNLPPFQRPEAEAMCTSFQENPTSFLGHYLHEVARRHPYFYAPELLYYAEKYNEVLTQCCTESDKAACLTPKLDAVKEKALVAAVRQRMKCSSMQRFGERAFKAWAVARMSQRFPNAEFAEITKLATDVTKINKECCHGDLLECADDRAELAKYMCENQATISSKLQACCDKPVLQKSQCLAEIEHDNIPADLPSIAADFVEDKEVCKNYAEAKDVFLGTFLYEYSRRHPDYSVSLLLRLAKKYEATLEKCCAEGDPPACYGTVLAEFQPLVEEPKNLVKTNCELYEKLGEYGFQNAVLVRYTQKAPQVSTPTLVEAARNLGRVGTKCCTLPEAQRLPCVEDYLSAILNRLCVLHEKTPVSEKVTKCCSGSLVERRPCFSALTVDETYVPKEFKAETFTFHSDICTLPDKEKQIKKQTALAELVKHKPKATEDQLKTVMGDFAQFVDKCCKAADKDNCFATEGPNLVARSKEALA
Method: as §7, §8, §9, §10, §11, §12, §13, §14, §15, §16, §17, §18, §19, §20, §21

Bovine serum albumin = Bovine serum albumin (Bos taurus, UniProt P02769); assay: as above; conditions: compound immobilised on CM5 chip according to Example 8
Chain of Bovine serum albumin (P02769 25-607): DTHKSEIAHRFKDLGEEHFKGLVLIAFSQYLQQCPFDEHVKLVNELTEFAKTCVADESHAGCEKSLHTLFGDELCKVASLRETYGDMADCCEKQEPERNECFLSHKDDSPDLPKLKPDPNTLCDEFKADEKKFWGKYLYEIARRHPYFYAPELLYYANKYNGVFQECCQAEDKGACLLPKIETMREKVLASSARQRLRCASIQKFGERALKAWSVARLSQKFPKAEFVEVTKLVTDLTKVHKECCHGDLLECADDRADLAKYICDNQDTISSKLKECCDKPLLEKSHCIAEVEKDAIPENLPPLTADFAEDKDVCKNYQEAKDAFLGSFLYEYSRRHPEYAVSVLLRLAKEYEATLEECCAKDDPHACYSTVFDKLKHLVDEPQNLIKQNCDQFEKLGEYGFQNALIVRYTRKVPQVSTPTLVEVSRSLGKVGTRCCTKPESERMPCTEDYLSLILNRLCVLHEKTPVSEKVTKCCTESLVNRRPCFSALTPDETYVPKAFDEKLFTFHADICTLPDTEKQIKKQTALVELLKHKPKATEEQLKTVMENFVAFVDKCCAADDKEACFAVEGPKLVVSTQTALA
Method: as §7, §8, §9, §10, §11, §12, §13, §14, §15, §16, §17, §18, §19, §20, §21

Chicken serum albumin = molecular target: T1, Chicken serum albumin (Gallus gallus, UniProt P19121); assay: as above; conditions: compound immobilised on CM5 chip according to Example 8
T1 sequence (P19121 24-615): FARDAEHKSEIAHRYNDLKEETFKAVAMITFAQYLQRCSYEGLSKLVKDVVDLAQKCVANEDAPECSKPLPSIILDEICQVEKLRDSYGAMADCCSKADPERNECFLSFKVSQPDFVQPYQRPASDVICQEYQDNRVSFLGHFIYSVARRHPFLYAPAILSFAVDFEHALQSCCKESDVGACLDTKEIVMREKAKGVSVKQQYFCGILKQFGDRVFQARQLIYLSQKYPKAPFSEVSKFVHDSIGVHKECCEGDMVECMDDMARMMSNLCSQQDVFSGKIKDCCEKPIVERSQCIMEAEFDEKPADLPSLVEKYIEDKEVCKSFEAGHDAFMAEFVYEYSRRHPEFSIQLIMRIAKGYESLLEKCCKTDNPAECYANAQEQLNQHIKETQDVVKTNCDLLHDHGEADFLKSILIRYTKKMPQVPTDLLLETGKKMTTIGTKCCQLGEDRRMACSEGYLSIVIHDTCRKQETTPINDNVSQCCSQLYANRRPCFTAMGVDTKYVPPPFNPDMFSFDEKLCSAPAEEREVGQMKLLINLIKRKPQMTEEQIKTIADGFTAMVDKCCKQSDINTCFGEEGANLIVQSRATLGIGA
Method: as §7, §8, §9, §10, §11, §12, §13, §14, §15, §16, §17, §18, §19, §20, §21

Human serum albumin = Human serum albumin (Homo sapiens, UniProt P02768); assay: as above; conditions: compound immobilised on CM5 chip according to Example 8
Chain of Human serum albumin (P02768 25-609): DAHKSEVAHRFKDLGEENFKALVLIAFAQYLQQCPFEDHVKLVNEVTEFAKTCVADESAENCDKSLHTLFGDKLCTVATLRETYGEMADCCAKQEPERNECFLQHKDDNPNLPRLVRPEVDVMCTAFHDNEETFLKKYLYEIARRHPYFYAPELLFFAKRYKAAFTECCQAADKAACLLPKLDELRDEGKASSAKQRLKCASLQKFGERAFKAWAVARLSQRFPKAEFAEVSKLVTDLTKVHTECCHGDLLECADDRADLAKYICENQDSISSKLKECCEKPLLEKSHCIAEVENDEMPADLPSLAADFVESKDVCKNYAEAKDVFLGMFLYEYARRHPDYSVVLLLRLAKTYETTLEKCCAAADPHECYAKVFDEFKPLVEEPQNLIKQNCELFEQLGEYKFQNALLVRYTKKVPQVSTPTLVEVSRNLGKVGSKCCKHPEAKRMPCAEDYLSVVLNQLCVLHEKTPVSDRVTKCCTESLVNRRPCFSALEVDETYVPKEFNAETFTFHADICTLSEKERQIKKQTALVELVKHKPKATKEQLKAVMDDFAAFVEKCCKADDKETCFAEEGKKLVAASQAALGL
Method: as §7, §8, §9, §10, §11, §12, §13, §14, §15, §16, §17, §18, §19, §20, §21

Sheep serum albumin = Sheep serum albumin (Ovis aries, UniProt P14639); assay: as above; conditions: compound immobilised on CM5 chip according to Example 8
Chain of Sheep serum albumin (P14639 25-607): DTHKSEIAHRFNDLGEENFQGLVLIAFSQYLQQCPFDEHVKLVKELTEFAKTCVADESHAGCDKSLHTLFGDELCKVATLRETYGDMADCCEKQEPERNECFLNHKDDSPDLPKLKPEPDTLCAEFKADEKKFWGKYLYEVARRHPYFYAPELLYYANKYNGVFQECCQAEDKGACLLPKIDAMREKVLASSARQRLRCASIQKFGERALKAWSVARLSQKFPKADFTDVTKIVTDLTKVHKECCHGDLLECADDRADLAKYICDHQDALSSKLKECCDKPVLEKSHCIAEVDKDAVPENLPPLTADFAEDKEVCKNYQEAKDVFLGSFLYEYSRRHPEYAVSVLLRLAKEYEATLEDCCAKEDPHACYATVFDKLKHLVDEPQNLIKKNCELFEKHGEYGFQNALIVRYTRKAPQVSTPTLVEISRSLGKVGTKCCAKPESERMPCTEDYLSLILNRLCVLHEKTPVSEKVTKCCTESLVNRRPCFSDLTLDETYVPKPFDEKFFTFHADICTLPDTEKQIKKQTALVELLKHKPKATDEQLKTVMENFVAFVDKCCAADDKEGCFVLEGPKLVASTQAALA
Method: as §7, §8, §9, §10, §11, §12, §13, §14, §15, §16, §17, §18, §19, §20, §21

dehydrogenases = assay: BIAcore comparison of relative binding strengths of the dehydrogenases; conditions: protein concentration of 1 μM; compound immobilised on CM5 chip
Method: as §13, §14, §15, §16, §17, §18, §19, §20
The relative binding strengths of the dehydrogenases investigated were compared with one another at a defined protein concentration.

CC(O)=C(C#N)C(=O)Nc1ccc(C(F)(F)F)cc1 [A 77 1726B, sodium salt of N-(4-trifluoromethylphenyl)-2-cyano-3-hydroxycrotonamide]
intensity of band around 35 kDa (malate dehydrogenase) in the preparation fraction (RAW 264.7 cells): markedly increased

Cc1oncc1C(=O)Nc1ccc(NC(=O)CBr)cc1 [Example 1, 5-Methylisoxazole4-carboxylic acid (4-(2-bromoacetylamino)phenyl)amide]
IC50 (A20.2.J): 0.8 µM | IC50 (EL 4): 0.8 µM | IC50 (K562): 50 µM

CC(O)=C(C#N)C(=O)Nc1ccc(NC(=O)CBr)cc1 [Example 2]
IC50 (A20.2.J): 15 µM | Resonance Units, binding of Pyruvate kinase DH (Pyruvate kinase DH; enzyme 50 nM): 85 Resonance Units | Resonance Units, binding of Pyruvate kinase DH (Pyruvate kinase DH; enzyme 100 nM): 189 Resonance Units | Resonance Units, binding of Pyruvate kinase DH (Pyruvate kinase DH; enzyme 250 nM): 505 Resonance Units | Resonance Units, binding of Dihydroorotate DH (Dihydroorotate DH; enzyme 50 nM): 203 Resonance Units | Resonance Units, binding of Dihydroorotate DH (Dihydroorotate DH; enzyme 100 nM): 425 Resonance Units | Resonance Units, binding of Dihydroorotate DH (Dihydroorotate DH; enzyme 250 nM): 1064 Resonance Units | Resonance Units, binding of Glyceraldehyde phosphate DH ([1]; enzyme 25 nM): 69 Resonance Units | Resonance Units, binding of Glyceraldehyde phosphate DH ([1]; enzyme 50 nM): 148 Resonance Units | Resonance Units, binding of Glyceraldehyde phosphate DH ([1]; enzyme 100 nM): 297 Resonance Units | Resonance Units, binding of Glyceraldehyde phosphate DH ([1]; enzyme 250 nM): 603 Resonance Units | Resonance Units, binding of serum albumin (Donkey serum albumin): 480 Resonance Units | Resonance Units, binding of serum albumin (Mouse serum albumin): 151 Resonance Units | Resonance Units, binding of serum albumin (Rat serum albumin): 1061 Resonance Units | Resonance Units, binding of serum albumin (Bovine serum albumin): 50 Resonance Units | Resonance Units, binding of serum albumin (Chicken serum albumin): 8 Resonance Units | Resonance Units, binding of serum albumin (Human serum albumin): 294 Resonance Units | Resonance Units, binding of serum albumin (Sheep serum albumin): 331 Resonance Units | IC50 (EL 4): 6 µM | relative binding strengths of the dehydrogenases (dehydrogenases): the binding of the dihydroorotate DH was the strongest, followed by lactate DH, glyceraldehyde phosphate DH and pyruvate kinase | IC50 (K562): 20 µM

CC(O)=C(C#N)C(=O)Nc1ccc(OCCCI)cc1 [Example 5, 2-Cyano-3-hydroxybut-2-enecarboxylic acid (4-(3-iodopropoxy)phenyl)amide]
IC50 (A20.2.J): 50 µM | IC50 (EL 4): 25 µM
